Patent US5981470A, “Uterine fibroid treatment” (The University of Birmingham, priority 1994, dated 1999)
Each block holds one compound with its values, some of them ahead of it.

How the values were obtained:
myometrial cells [1] = assay: Myometrial cell proliferation, cell counts in Coulter counter; type: cell-based, human; conditions: for cell count, 0 day (+/-SD) / cell count, 4 days (+/-SD) / cell count, 6 days (+/-SD): Table 1, in 1% FCS
Method: Tissue samples were placed into sterile calcium and magnesium-free HBSS containing penicillin (100 U/ml) and streptomycin (100 μg/ml) for transfer to the laboratory. Myometrial cells were isolated by collagenase digestion. Briefly, myometrium was finely chopped and incubated in HBSS containing 1 mg/ml collagenase IA, 20 mM Hepes, […], 100 μg/ml streptomycin and 5 μg/ml fungizone at 37° C. until the cells were dispersed. Myometrial cells were obtained by centrifugation for 15 minutes at 400 g over 60% Percoll and the cells washed with HBSS. Myometrial cells were characterised by their ability to respond to oxytocin and staining for actin.
Cells were maintained in 175 cm^2 flasks in Dulbecco's modified Eagle's medium (DMEM) containing 10% (v/v) fetal calf serum (FCS), 1% L-glutamine,20 mM Hepes and 1% antibiotic-antimycotic mixture (10,000 U penicillin, […], and 25 μg ml^-1 fungizone) at 37° C. in a humidified atmosphere of air/CO2 (19:1) until 95% confluent. Thereafter, the cells were trypsinised, washed and re-plated at a density of 10×10^3 cells per well in 24-well plates in 1 ml of DMEM with 10% FCS for the proliferation studies. After 24 hrs, the medium was removed and replaced with serum-free DMEM. After a further 24 hrs, the experiments were initiated on quiescent monolayers of myometrial cells. To the serum-starved myometrial cells was added either angiotensin II (0.1 μm or 1.0 μm) in the presence or absence of 1% FCS or bFGF (20 ng/ml) or FCS (1%) alone or DuP753 with or without angiotensin II (0.1 μM) and cell growth measured at day 4 and day 6 by counting cell numbers in a Coulter counter as described below. The corresponding medium was replaced every 24 hrs with fresh medium.
Calibration of the Coulter counter was achieved by counting the myometrium cell suspension at reduced aperture size ranging from 0 to 32. A calibration curve was constructed from the cell counts on the function of the aperture size, and the aperture size corresponding to the middle point of the plateau part of the calibration curve was used for the cell counting. The aperture size used for myometrium cell counting was 16.
At defined time-points, the growth media was removed and the cells were washed with 1 ml of isotonic saline (0.9% sodium chloride), followed by the addition of 1 ml of 10 mM HEPES buffer containing 1.5 mM magnesium chloride, and 2 drops of Zap-oglobin (Coulter Electronics Ltd., Luton, Beds., UK) containing 2.5% acetic acid to each well. The 24-well plate was allowed to incubate at 37° C. for 10 min. After which, the suspended cells were pipetted up and down to disperse the cell clusters. The cell suspension was then added to 9 ml of counting solution containing 0.9% sodium chloride and 0.5% formalin in a Coulter counter container. Each well was washed three times with the counting solution from the same container and effluent collected in the same container. The number of cells in each well was counted at the aperture size of 16 on the Coulter counter (Coulter Electronics Ltd., Luton, Beds U.K.). Three readings were taken for each well and a mean value of the three readings obtained. The mean (±SD) value of cell counts from the triplicate wells was calculated.
As discussed above, FIG. 3(A) illutrates the effect of angiotensin II on myometrial cell proliferation. Myometrium cells were maintained in Dulbecco's modified Eagle's medium (MD) with 10% (v/v) FCS, containing 1% L-glutamine, 20 mM HEPES and 1% antibiotic-antimycotic mixture (10,000 U penicillin, 10 mg streptomycin) at 37° C. in a humidified atmosphere of air/CO2 (19:1) until 95% confluent. For the proliferation studies, the cells were plated at a density of 10×10^3 cells per well in 24 well plates in 1 ml of DMEM with 10% FCS. After 24 hrs the medium was removed and replaced with serum-free DMEM. After a further 24 hrs, the experiment was initiated on quiescent monolayers of myometrial cells. […]

[2] = test system: non-AT1/non-AT2 angiotensin II recognition site; assay: [125I]angiotensin II receptor autoradiography on myometrium/fibroid sections; type: binding, human; conditions: for displacement of [125I]angiotensin II from non-AT1/non-AT2 angiotensin II recognition site: FIG. 2, unlabeled ligand 0.1 nM, human non-pregnant myometrium and fibroid sections
Method: Frozen myometrium and fibroid tissues were surrounded in embedding medium (OCT compound, Miles Scientific) before 20 μm sections were cut using a cryostat (-15 to -1 9° C.) and thaw mounted onto gelatin-coated glass slides for receptor autoradiographic studies. Sections were stored (less than 2 week) desiccated at -80° C. until used.
Slide mounted human myometrial/fibroid sections were removed from storage and allowed approximately 30 min to equilibrate to room temperature. To reduce endogenous levels of angiotensin II in the tissue, the sections were preincubated for 60 min in incubation buffer (mM; sodium chloride, 150; sodium dihydrogen phosphate, 50; magnesium chloride, 10; ethyleneglycol-bis-(β-amino-ethyl ether)-N,N'-tetra-acetic acid, 5 and 0.4% w/v bovine serum albumin, pH 7.4) at 25° C. […] Immediately following incubation, the tissue sections were washed in ice-cold incubation buffer for 2 min and dipped (1 s) in ice-cold distilled water to remove buffer salts. The sections were rapidly dried in a stream of cold dry air and exposed to Hyperfilm-[^3 H]

myometrial cells [3] = assay: [3H]-thymidine incorporation into DNA (DNA synthesis); type: cell-based, human; conditions: FIG. 4; Captopril 0.1 and 1.0 mM; 48 h; serum-free medium
Method: Myometrial cells prepared as described previously were resuspended in culture medium containing DMEM supplemented with 10% (v/v) FCS, 10 mM L-glutamine, 20 mM hepes, 100 U/mi penicillin and 100/μg/ml streptomycin in 24 well plates at a density of approximately 250×10^3 cells per well and maintained at 37° C. in a humidified atmosphere of air/CO2 (19:1).
DNA synthesis was assayed by measuring [^3 H]-thymidine incorporation into DNA. Subconfluent myometrial cells were made quiescent by incubation with serum-free medium for 48 h, the medium being replaced with serum-free medium containing 0.2% (w/v) bovine serum albumin (BSA) and [^3 H]-thymidine (0.2 μCi/well). The cells were further incubated for 48 h in the presence of angiotensin-converting enzyme (ACE) inhibitor (0.1 and 1.0 mM Captopril, hatched and solid columns respectively) or angiotensin II (100 nM AgII, crossed column). The medium was then removed and the cells incubated with 10% cold trichloroacetic acid TCA) at 4° C. for 15 min. TCA-precipitated material was redissolved in 0.2 M NaOH and the radioactivity determined by liquid scintillation counting in a β-scintillation analyser. Positive and negative controls for proliferation were established by incubating cells with 10% fetal calf serum (square column) and by growth in the absence of the agonist in serum-free medium (open column).

[4] = test system: angiotensin II-induced myometrial cell proliferation; assay: Inhibition of angiotensin II-induced myometrial cell proliferation, Coulter counter; type: cell-based, human; conditions: for inhibition of angiotensin II-mediated cell proliferation: FIG. 5, 1.00 μM
Method: Tissue samples were placed into sterile calcium and magnesium-free HBSS containing penicillin (100 U/ml) and streptomycin (100 μg/ml) for transfer to the laboratory. Myometrial cells were isolated by collagenase digestion. Briefly, myometrium was finely chopped and incubated in HBSS containing 1 mg/ml collagenase IA, 20 mM Hepes, 100 U/L penicillin, 100 μg/ml streptomycin and 5 μg/ml fungizone at 37° C. until the cells were dispersed. Myometrial cells were obtained by centrifugation for 15 minutes at 400 g over 60% Percoll and the cells washed with HBSS. Myometrial cells were characterised by their ability to respond to oxytocin and staining for actin.
Cells were maintained in 175 cm^2 flasks in Dulbecco's modified Eagle's medium (DMEM) containing 10% (v/v) fetal calf serum (FCS), 1% L-glutamine,20 mM Hepes and 1% antibiotic-antimycotic mixture (10,000 U penicillin, 10 μg streptomycin, and 25 μg ml^-1 fungizone) at 37° C. in a humidified atmosphere of air/CO2 (19:1) until 95% confluent. Thereafter, the cells were trypsinised, washed and re-plated at a density of 10×10^3 cells per well in 24-well plates in 1 ml of DMEM with 10% FCS for the proliferation studies. After 24 hrs, the medium was removed and replaced with serum-free DMEM. After a further 24 hrs, the experiments were initiated on quiescent monolayers of myometrial cells. […] The corresponding medium was replaced every 24 hrs with fresh medium.
At defined time-points, the growth media was removed and the cells were washed with 1 ml of isotonic saline (0.9% sodium chloride), followed by the addition of 1 ml of 10 mM HEPES buffer containing 1.5 mM magnesium chloride, and 2 drops of Zap-oglobin (Coulter Electronics Ltd., Luton, Beds., UK) containing 2.5% acetic acid to each well. The 24-well plate was allowed to incubate at 37° C. for 10 min. After which, the suspended cells were pipetted up and down to disperse the cell clusters. The cell suspension was then added to 9 ml of counting solution containing 0.9% sodium chloride and 0.5% formalin in a Coulter counter container. […] The number of cells in each well was counted at the aperture size of 16 on the Coulter counter (Coulter Electronics Ltd., Luton, Beds U.K.). Three readings were taken for each well and a mean value of the three readings obtained. The mean (±SD) value of cell counts from the triplicate wells was calculated.
Myometrium cells were maintained in Dulbecco's modified Eagle's medium (MD) with 10% (v/v) FCS, containing 1% L-glutamine, 20 mM HEPES and 1% antibiotic-antimycotic mixture (10,000 U penicillin, 10 mg streptomycin) at 37° C. in a humidified atmosphere of air/CO2 (19:1) until 95% confluent. […] The cell growth was measured at day 4 and day 6 by counting cell numbers in a Coulter Counter. […]

Compound: bFGF: Basic fibroblast growth factor, classic growth factor, from RD Systems
- cell count, 0 day (+/-SD) (myometrial cells [1]): 63.90 +/- 1.88
- cell count, 4 days (+/-SD) (myometrial cells [1]): 167.33 +/- 25.11
- cell count, 6 days (+/-SD) (myometrial cells [1]): 307.33 +/- 49.69

- displacement of [125I]angiotensin II from non-AT1/non-AT2 angiotensin II recognition site [2]: can selectively displace
Compound: Sar-Ala-angiotensin II

- displacement of [125I]angiotensin II from non-AT1/non-AT2 angiotensin II recognition site [2]: can selectively displace
Compound: Sar-Thr-angiotensin II

Compound: C[C@H](CS)C(=O)N1CCC[C@H]1C(=O)O [Captopril]
- reduction of DNA synthesis, of control (0% FCS) (myometrial cells [3]): ~50%

- intensity of non-AT1/non-AT2 angiotensin II recognition site labelling in fibroid tissue ([2]; FIG. 1, cold angiotensin II (1 μM)): only disappears
Compound: angiotensin II (DRVYIHPF; Angiotensin-2; UniProt P01019 25-32, looked up)
- increase in myometrial cell proliferation compared to cells in culture medium devoid of angiotensin II (myometrial cells [1]; FIG. 3(A), 0.1 μM, after six days in culture): ~100%
- cell count, 0 day (+/-SD) (myometrial cells [1]): 64.33 +/- 2.73
- cell count, 4 days (+/-SD) (myometrial cells [1]): 167.33 +/- 21.55
- cell count, 6 days (+/-SD) (myometrial cells [1]): 333.67 +/- 7.51

Compound: Cc1cc(Cn2cnc3c2CC(C(=O)O)N(C(=O)C(c2ccccc2)c2ccccc2)C3)ccc1N (stereo not drawn) [PD123177]
- inhibition of angiotensin II-mediated cell proliferation [4]: significantly inhibited
- inhibition of angiotensin II-mediated cell growth ([4]; preliminary data): inhibits

Compound: CCCCc1nc(Cl)c(CO)n1Cc1ccc(-c2ccccc2-c2nn[nH]n2)cc1 [DuP753]
- inhibition of the effects of angiotensin II on cell proliferation ([4]; FIG. 3(B), DuP753 1 μM, angiotensin II 0.1 μM, 1% FCS): inhibits
- inhibition of angiotensin II-mediated cell proliferation [4]: significantly inhibited
